The format of data set [1] is physicochemical. To be noted: plastic bags, room temperature. As to the method: Stability - Shelf life surveillance of the intact vials is ongoing. Because the single-use lyophilized dosage form contains no antibacterial preservatives, it is advised that the reconstituted solution be discarded eight hours after initial entry into the vial. Further dilutions of the reconstituted solution to concentrations of 0.02 mg/ml and 0.1 mg. ml in 5% Dextrose Injection, USP, ("D5W") or 0.9% Sodium Chloride Injection, USP, ("NS") in plastic bags stored at room temperature yielded the following stability results:
Percentage of Initial Topotecan Remaining in Solution

The format of data set [2] is physicochemical. To be noted: hang-bag, 24 hours. As for the experimental part:
Topotecan diluted in saline (10 ug/ml or 500 ug/ml) or dextrose (6.7 ug/ml or 330 ug/ml) is stable in a hang-bag for 24 hours with at least 95% recovery.

In the next data set the test system is DNA topoisomerase I. The following applies: background statement; cited from earlier work.
The next data set concerns ovarian cancer. The following applies: humans, sole chemotherapeutic agent; cited from earlier work.
In the next data set the test system is esophageal cancer. To be noted: humans, sole chemotherapeutic agent; cited from earlier work.
Data set [3] concerns non-small cell lung carcinoma. The following applies: humans, sole chemotherapeutic agent; cited from earlier work.
The conditions of data set [4]: in words; cited from earlier work.

The source of these data is patent US5633016A, “Combination chemotherapy” (SmithKline Beecham Corporation, priority 1995, dated 1997).

Each structure is given as a SMILES string. Like-named read-outs stand apart in the source and are kept apart here.

`CC[C@@]1(O)C(=O)OCc2c1cc1n(c2=O)Cc2cc3c(CN(C)C)c(O)ccc3nc2-1` [Topotecan, (S)-10[(dimethylamino)methyl]-4-ethyl-4,9-dihydroxy-IH-pyrano[3',4':6,7]indolizino[1,2-b]quinolone-3,14(4H,12H)-dione]: the “Percentage of Initial Topotecan Remaining in Solution” value in data set [1] (D5W (5% Dextrose Injection, USP), 0.02 mg/ml, 0 hrs) stood at 100.00 Percentage; in data set [1] (D5W (5% Dextrose Injection, USP), 0.1 mg/ml, 0 hrs) it was 100.00 Percentage; in data set [1] (NS (0.9% Sodium Chloride Injection, USP), 0.02 mg/ml, 0 hrs), 100.00 Percentage; in data set [1] (NS (0.9% Sodium Chloride Injection, USP), 0.1 mg/ml, 0 hrs), 100.00 Percentage; in data set [1] (NS (0.9% Sodium Chloride Injection, USP), 0.1 mg/ml, 6 hrs) it was 97.71 Percentage; in data set [1] (NS (0.9% Sodium Chloride Injection, USP), 0.1 mg/ml, 24 hrs), 98.30 Percentage. Moreover, the “Percentage of Initial Topotecan Remaining in Solution” value in data set [1] (NS (0.9% Sodium Chloride Injection, USP), 0.1 mg/ml, 48 hrs) turned out to be 98.35 Percentage. The recovery result in data set [2] (dextrose (6.7 ug/ml or 330 ug/ml)) and in data set [2] (saline (10 ug/ml or 500 ug/ml)) was “at least 95%” each time. Also, the “inhibition of DNA topoisomerase I” value in the data set on DNA topoisomerase I is “specific inhibitor of DNA topoisomerase I”. The clinical efficacy result (in the data set on ovarian cancer; in the data set on esophageal cancer; in data set [3]) was “shown clinical efficacy” each time. Further, in data set [4], the water solubility entry is “water-soluble”.
